Data reported in ChEMBL document CHEMBL1133093, “The PPARs: from orphan receptors to drug discovery” (J Med Chem, 2000).

Experiments:
[1] = target: T1, Peroxisome proliferator-activated receptor delta (Homo sapiens, UniProt Q03181)
T1 sequence (Q03181 whole entry): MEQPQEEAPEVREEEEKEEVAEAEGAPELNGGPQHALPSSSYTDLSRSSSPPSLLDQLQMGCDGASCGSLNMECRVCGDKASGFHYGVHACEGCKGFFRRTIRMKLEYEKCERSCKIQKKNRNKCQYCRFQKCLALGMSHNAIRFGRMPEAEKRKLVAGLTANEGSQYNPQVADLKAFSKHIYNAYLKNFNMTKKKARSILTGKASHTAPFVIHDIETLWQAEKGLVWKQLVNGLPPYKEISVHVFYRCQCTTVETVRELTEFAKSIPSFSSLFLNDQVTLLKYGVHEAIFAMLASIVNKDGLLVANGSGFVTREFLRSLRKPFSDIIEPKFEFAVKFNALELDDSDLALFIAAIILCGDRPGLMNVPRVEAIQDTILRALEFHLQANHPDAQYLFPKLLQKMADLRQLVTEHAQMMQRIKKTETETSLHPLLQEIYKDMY

[2] = target: T2, Peroxisome proliferator-activated receptor delta (Mus musculus, UniProt P35396); test: Agonist activity for murine PPAR delta receptor in transcriptional activation assay; format: functional
T2 sequence (P35396 whole entry): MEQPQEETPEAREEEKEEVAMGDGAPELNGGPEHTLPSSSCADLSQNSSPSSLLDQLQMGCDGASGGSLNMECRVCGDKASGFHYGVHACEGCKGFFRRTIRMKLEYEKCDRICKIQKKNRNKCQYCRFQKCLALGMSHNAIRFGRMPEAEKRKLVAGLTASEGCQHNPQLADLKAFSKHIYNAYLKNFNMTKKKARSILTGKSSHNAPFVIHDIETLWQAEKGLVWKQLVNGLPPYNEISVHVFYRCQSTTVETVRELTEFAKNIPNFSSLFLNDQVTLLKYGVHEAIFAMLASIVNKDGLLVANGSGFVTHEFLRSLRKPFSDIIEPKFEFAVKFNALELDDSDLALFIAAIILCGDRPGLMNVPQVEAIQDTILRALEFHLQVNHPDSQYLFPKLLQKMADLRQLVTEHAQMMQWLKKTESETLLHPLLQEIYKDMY

[3] = target: T3, Peroxisome proliferator-activated receptor gamma (Homo sapiens, UniProt P37231)
T3 sequence (P37231 whole entry): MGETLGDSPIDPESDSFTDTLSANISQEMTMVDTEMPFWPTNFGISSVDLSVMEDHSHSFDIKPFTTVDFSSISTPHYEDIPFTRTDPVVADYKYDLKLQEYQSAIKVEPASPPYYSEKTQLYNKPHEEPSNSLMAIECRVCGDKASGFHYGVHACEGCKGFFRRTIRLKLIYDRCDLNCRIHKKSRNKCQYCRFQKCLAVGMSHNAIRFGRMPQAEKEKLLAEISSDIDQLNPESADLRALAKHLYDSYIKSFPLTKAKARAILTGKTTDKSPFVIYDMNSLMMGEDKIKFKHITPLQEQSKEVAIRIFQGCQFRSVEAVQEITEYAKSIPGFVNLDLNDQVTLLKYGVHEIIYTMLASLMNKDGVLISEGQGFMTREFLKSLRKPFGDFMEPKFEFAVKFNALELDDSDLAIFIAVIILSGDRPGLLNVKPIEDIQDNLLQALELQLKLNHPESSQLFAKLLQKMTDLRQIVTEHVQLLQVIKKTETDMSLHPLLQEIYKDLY

[4] = target: T4, Peroxisome proliferator-activated receptor alpha (Homo sapiens, UniProt Q07869)
T4 sequence (Q07869 whole entry): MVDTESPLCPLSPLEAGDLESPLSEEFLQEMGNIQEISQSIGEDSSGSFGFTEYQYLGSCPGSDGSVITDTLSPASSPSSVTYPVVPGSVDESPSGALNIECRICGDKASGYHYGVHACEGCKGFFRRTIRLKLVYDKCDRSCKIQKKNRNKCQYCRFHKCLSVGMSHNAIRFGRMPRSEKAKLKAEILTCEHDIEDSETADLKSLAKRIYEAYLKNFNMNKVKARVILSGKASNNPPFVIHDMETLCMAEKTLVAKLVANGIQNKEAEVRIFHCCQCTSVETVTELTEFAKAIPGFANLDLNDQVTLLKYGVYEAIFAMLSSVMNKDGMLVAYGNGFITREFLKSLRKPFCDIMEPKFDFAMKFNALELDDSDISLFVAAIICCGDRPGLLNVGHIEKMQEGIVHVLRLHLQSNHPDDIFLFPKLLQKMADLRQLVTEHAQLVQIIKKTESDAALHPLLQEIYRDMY

[5] = target: T5, Peroxisome proliferator-activated receptor alpha (Mus musculus, UniProt P23204); test: Agonist activity for murine PPAR alpha receptor in transcriptional activation assay;IA means inactive at 10 uM; format: functional
T5 sequence (P23204 whole entry): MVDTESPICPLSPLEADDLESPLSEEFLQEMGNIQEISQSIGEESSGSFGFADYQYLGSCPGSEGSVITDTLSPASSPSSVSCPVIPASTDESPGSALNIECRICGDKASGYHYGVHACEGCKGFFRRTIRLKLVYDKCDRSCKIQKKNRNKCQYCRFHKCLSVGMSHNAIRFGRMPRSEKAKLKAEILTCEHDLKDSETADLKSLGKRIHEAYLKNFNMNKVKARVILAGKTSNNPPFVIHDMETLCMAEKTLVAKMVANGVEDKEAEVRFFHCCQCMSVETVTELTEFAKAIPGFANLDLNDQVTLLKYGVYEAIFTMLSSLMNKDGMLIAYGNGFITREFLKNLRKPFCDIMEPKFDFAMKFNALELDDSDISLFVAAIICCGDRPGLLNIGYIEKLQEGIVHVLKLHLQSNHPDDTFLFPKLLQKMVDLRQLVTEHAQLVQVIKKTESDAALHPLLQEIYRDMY

[6] = target: T6, Peroxisome proliferator-activated receptor gamma (Mus musculus, UniProt P37238)
T6 sequence (P37238 whole entry): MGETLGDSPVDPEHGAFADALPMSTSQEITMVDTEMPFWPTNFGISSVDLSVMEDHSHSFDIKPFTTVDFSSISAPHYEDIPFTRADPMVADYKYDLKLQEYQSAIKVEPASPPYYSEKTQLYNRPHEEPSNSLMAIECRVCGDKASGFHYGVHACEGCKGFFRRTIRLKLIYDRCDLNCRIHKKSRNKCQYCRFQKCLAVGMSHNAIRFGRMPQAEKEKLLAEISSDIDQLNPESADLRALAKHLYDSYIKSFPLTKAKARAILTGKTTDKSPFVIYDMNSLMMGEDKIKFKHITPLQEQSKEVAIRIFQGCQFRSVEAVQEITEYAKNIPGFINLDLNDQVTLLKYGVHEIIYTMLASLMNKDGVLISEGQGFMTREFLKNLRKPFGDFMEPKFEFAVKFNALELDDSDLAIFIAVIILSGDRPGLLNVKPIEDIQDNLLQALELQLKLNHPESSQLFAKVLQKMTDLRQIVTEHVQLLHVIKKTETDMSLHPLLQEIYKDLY
Description: Agonist activity for murine PPAR gamma receptor in transcriptional activation assay

[7] = target: T5, Peroxisome proliferator-activated receptor alpha; format: functional
[8] = target: T1, Peroxisome proliferator-activated receptor delta; test: Agonist activity for Human PPAR delta receptor in transcriptional activation assay; IA means inactive at 10 uM; format: functional
[9] = target: T2, Peroxisome proliferator-activated receptor delta; test: Agonist activity for murine PPAR delta receptor in transcriptional activation assay; IA means inactive at 10 uM; format: functional
[10] = target: T4, Peroxisome proliferator-activated receptor alpha; test: Agonist activity for Human PPAR alpha receptor in transcriptional activation assay; IA means inactive at 10 uM; format: functional
[11] = target: T5, Peroxisome proliferator-activated receptor alpha; test: Agonist activity for murine PPAR alpha receptor in transcriptional activation assay; IA means inactive at 10 uM; format: functional
[12] = target: T4, Peroxisome proliferator-activated receptor alpha; test: Agonist activity for Human PPAR alpha receptor in transcriptional activation assay;IA means inactive at 10 uM; format: functional
[13] = target: T1, Peroxisome proliferator-activated receptor delta; remark: listed apart in the source
Description: Agonist activity for Human PPAR delta receptor in transcriptional activation assay;IA means inactive at 10 uM

[14] = target: T2, Peroxisome proliferator-activated receptor delta
Description: Agonist activity for murine PPAR delta receptor in transcriptional activation assay;IA means inactive at 10 uM

[15] = target: T1, Peroxisome proliferator-activated receptor delta; test: Agonist activity for Human PPAR delta receptor in transcriptional activation assay at 100 uM; IA means inactive; format: functional
[16] = target: T2, Peroxisome proliferator-activated receptor delta; remark: listed apart in the source
Description: Agonist activity for murine PPAR delta receptor in transcriptional activation assay at 100 uM; IA means inactive

[17] = target: T3, Peroxisome proliferator-activated receptor gamma; test: Agonist activity for Human PPAR gamma receptor in transcriptional activation assay; format: functional
[18] = target: T2, Peroxisome proliferator-activated receptor delta; remark: listed apart in the source
[19] = target: T1, Peroxisome proliferator-activated receptor delta; remark: listed apart in the source
[20] = target: T4, Peroxisome proliferator-activated receptor alpha; remark: listed apart in the source

SMILES: CCCc1c(OCCCOc2ccc(OCC(=O)O)cc2)ccc(C(C)=O)c1O
- EC50 [1]: 530 nM
- EC50 [2]: 3800 nM
- EC50 [3]: 5500 nM
- EC50 [4]: 10000 nM
- EC50 [5]: Not Active
- EC50 [6]: 10000 nM

SMILES: COc1ccc(CC2SC(=O)NC2=O)cc1C(=O)NCc1ccc(C(F)(F)F)cc1 (centres undefined)
- EC50 [1]: 9100 nM
- EC50 [2]: 7200 nM
- EC50 [7]: 10000 nM

SMILES: CCOC(Cc1ccc(OCCN(C)c2nc3ccccc3o2)cc1)C(=O)O (centres undefined)
- EC50 [7]: 930 nM
- EC50 [4]: 740 nM

SMILES: COc1ccc(CCc2c(-c3ccccc3)[nH]c3ccc(CC(=O)O)cc23)cc1
- EC50 [8]: Not Active
- EC50 [9]: Not Active
- EC50 [10]: Not Active
- EC50 [6]: 140 nM
- EC50 [11]: Not Active

SMILES: CN(CCOc1ccc(C[C@H](Nc2ccccc2C(=O)c2ccccc2)C(=O)O)cc1)c1ccccn1
- EC50 [12]: Not Active
- EC50 [13]: Not Active
- EC50 [5]: Not Active
- EC50 [14]: Not Active
- EC50 [6]: 13 nM

SMILES: CC(C)(Oc1ccc(CCCN(CCc2c(F)cccc2Cl)C(=O)Nc2cccc(Cl)c2Cl)cc1)C(=O)O
- EC50 [2]: 410 nM
- EC50 [7]: 270 nM
- EC50 [3]: 2500 nM
- EC50 [4]: 170 nM
- EC50 [6]: 1500 nM

SMILES: CCOC(=O)C(C)(C)Oc1ccc(Cl)cc1 [CLOFIBRATE]
- EC50 [15]: Not Active
- EC50 [7]: 50000 nM
- EC50 [16]: Not Active
- EC50 [4]: 55000 nM
- EC50 [17]: 500000 nM

SMILES: Cc1oc(-c2ccccc2)nc1CCOc1ccc(C[C@H](Nc2ccccc2C(=O)c2ccccc2)C(=O)O)cc1 [FARGLITAZAR]
- EC50 [13]: Not Active
- EC50 [5]: Not Active
- EC50 [14]: Not Active

SMILES: CC(C)OC(=O)C(C)(C)Oc1ccc(C(=O)c2ccc(Cl)cc2)cc1 [FENOFIBRATE]
- EC50 [15]: Not Active
- EC50 [16]: Not Active

SMILES: COC(=O)c1ccccc1N[C@@H](Cc1ccc(OCCc2nc(-c3ccccc3)oc2C)cc1)C(=O)O [GW7845]
- EC50 [13]: Not Active
- EC50 [5]: Not Active
- EC50 [14]: Not Active

SMILES: CCCc1c(OCCCSc2ccc(CC(=O)O)cc2Cl)ccc2c(-c3ccccc3)coc12 [L-796449]
- EC50 [2]: 23 nM
- EC50 [7]: 7600 nM
- EC50 [4]: 4.1 nM
- EC50 [6]: 10 nM

SMILES: CCc1ccc(CCOc2ccc(CC3SC(=O)NC3=O)cc2)nc1 (centres undefined) [PIOGLITAZONE]
- EC50 [18]: Not Active
- EC50 [19]: Not Active
- EC50 [20]: Not Active
- EC50 [11]: Not Active

SMILES: Cc1cccc(Nc2cc(Cl)nc(SCC(=O)O)n2)c1C [PIRINIXIC ACID]
- EC50 [6]: 32000 nM

SMILES: Cc1oc(-c2ccccc2)nc1CCOc1ccc(CC2C(=O)NOC2=O)cc1 (centres undefined) [REGLITAZAR]
- EC50 [7]: 4300 nM
- EC50 [13]: Not Active
- EC50 [4]: 1900 nM
- EC50 [14]: Not Active
- EC50 [6]: 89 nM

SMILES: CN(CCOc1ccc(CC2SC(=O)NC2=O)cc1)c1ccccn1 (centres undefined) [ROSIGLITAZONE]
- EC50 [20]: Not Active
- EC50 [11]: Not Active

SMILES: Cc1c(C)c2c(c(C)c1O)CCC(C)(COc1ccc(CC3SC(=O)NC3=O)cc1)O2 (centres undefined) [TROGLITAZONE]
- EC50 [18]: Not Active
- EC50 [19]: Not Active
- EC50 [20]: Not Active
- EC50 [11]: Not Active
